The source of these data is patent US20100181035A1, “GLUCOSYLTRANSFERASES” (UNIVERSITY OF YORK, priority 2003, published 2010).

The target of assay [1] is T1, glucosyltransferase 72E1 (UGT72E1) (Arabidopsis thaliana, UniProt Q94A84).
T1 construct: made in house; host or cells: E. coli
T1 sequence (Q94A84 1-487): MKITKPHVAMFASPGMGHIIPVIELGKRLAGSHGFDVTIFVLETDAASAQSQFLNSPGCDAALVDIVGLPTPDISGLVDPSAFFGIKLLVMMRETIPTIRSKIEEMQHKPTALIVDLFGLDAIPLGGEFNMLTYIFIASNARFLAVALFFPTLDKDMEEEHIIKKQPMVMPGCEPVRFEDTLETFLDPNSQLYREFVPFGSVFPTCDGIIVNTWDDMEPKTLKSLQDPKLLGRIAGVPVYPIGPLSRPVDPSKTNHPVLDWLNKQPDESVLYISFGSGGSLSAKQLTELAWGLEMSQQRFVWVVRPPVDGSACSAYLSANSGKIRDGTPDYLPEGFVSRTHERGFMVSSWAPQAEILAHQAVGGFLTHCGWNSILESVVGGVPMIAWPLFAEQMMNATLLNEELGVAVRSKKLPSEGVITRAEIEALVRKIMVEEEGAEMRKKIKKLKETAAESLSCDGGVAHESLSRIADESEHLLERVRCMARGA
Briefly: Glucosyltransferase activity assay with recombinant UGT72E1, HPLC analysis. It is filed as biochemical. The note with it: substrate glucosylation; 2 μg enzyme, 1 mM phenolic substrate, 5 mM UDP-glucose, 100 mM Tris-HCl pH 7.0, 30° C., 1 h; HPLC peak area. Here is the method: Recombinant UGT72E1 was expressed and purified from E. coli as described previously (Lim et al., 2001, J. Biol. Chem. 276, 4344-4349). The enzyme (2 μg) was incubated with 1 mM phenolic substrates, 5 mM UDP-glucose, 100 mM Tris-HCl, pH 7.0 in a total volume 200 μl. The reaction mix was incubated at 30° C. for 1 h and was analysed using HPLC subsequently.
Coniferyl alcohol: 10-25% acetonitrile (0.1% TFA), 306 nm Sinapyl alcohol: 10-25% acetonitrile (0.1% TFA), 285 nm p-coumaryl alcohol: 10-25% acetonitrile (0.1% TFA), 311 nm coniferyl aldehyde: 10-47% acetonitrile (0.1% TFA), 311 nm sinapyl aldehyde: 10-47% acetonitrile (0.1% TFA), 280 nm p-coumaryl aldehyde: 10-47% acetonitrile (0.1% TFA), 315 nm

The target of assay [2] is T2, glucosyltransferase 72E2 (UGT72E2) (Arabidopsis thaliana, UniProt Q9LVR1).
T2 sequence (Q9LVR1 1-481): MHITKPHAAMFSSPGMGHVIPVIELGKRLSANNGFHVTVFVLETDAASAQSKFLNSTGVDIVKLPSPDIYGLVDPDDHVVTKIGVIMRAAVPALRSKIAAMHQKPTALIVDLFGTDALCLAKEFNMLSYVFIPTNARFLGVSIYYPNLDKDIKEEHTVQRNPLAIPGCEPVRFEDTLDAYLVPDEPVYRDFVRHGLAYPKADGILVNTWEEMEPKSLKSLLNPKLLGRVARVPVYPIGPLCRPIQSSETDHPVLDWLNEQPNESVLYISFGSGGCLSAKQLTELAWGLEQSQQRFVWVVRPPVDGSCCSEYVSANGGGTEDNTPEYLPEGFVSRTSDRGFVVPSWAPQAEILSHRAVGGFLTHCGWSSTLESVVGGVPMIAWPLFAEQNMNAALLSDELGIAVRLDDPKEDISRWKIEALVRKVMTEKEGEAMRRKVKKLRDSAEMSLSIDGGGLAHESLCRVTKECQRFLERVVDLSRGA
Briefly: Glucosyltransferase activity assay with 72E2, HPLC analysis. It is filed as biochemical. The note with it: substrate glucosylation; HPLC peak area; conditions for UGT72E1: 1 mM substrate, 5 mM UDP-glucose, pH 7.0, 30° C., 1 h.

In the case of `COc1cc(/C=C/C=O)cc(OC)c1O` [Sinapyl aldehyde], the “Activity (area, uv × sec) 72E1” value in assay [1] is given as 13655427 uv × sec. The “Activity (area, uv × sec) 72E2” value in assay [2] stood at 37002362 uv × sec.

For the compound `O=C/C=C/c1ccc(O)cc1` [p-coumaryl aldehyde], the “Activity (area, uv × sec) 72E1” value in assay [1] is recorded as 9243651 uv × sec. Besides, in assay [2], the “Activity (area, uv × sec) 72E2” value came to 2612331 uv × sec.

For `OC/C=C/c1ccc(O)cc1` [p-coumaryl alcohol], in assay [1], the “Activity (area, uv × sec) 72E1” value is 0 uv × sec. Further, the “Activity (area, uv × sec) 72E2” value in assay [2] is reported as 0 uv × sec.

Consider `COc1cc(/C=C/CO)ccc1O` [Coniferyl alcohol], for which, in assay [1], the “Activity (area, uv × sec) 72E1” value is 3225766 uv × sec. Moreover, the “Activity (area, uv × sec) 72E2” value in assay [2] came to 29756923 uv × sec.

Consider `COc1cc(/C=C/C=O)ccc1O` [Coniferyl aldehyde], for which the “Activity (area, uv × sec) 72E1” value in assay [1] was determined as 21950129 uv × sec. The “Activity (area, uv × sec) 72E2” value in assay [2] is 5068215 uv × sec.

As to `COc1cc(/C=C/CO)cc(OC)c1O` [Sinapyl alcohol], the “Activity (area, uv × sec) 72E1” value in assay [1] was 0 uv × sec. The “Activity (area, uv × sec) 72E2” value in assay [2] is 3339410 uv × sec.
